Data published in patent US9811635B2, “Immune and oxygen system measuring and drug screening method and apparatus” (priority 2010, dated 2017).
Blank lines part the entries; values can stand above or below the molecule they belong to.

Legend:
human blood = experiment: Immunogram Analyzer run: effect of borate and aspirin on ROX/BOX of human blood; assay type: cell-based; settings: for effect on ROX and BOX: compared to saline runs on a patient's blood; for BOX / ROX / ROXNO / ROXO2: human blood aged 5 days at room temperature, 0.10 ml blood, 0.9 ml saline
Description: (§1) First, a testing apparatus having a sample well 10 or cell with a sensor or probe 20 and a reader/processor 30 is provided. […] The testing probes are inserted into the cell and the testing apparatus is calibrated so that the reading for levels of signaling materials is at zero. For example, a compound A, such as signaling material-free saline solution can be added to cell E derive an instrument baseline reading free of signaling material. Alternatively, a gas that is free of signaling material can be bubbled into the cell.
Once a baseline showing a zero reading for signaling materials is established, an amount of blood D is added to cell E. This amount of blood D can be a small quantity, such as between about 0.02 mL and about 0.10 mL, of freshly drawn or frozen blood from a test individual or patient. For convenience, a 3.00 mL sample of anticoagulated blood may be frozen for later analysis. Very small samples of blood, such as less than about 0.02 mL, may also be analyzed.
(§2) An initial reading is made of the levels of signaling materials in the sample prior to any stress being imposed. The mixture of compound A and blood D is then exposed to an initial stress B. A suitable stress would be physical shear stress produced by the administering syringe and/or a rotating magnetic stirrer. The sensor within the cell E then determines a drop in concentration of signaling materials, which is presumably brought on by the addition of stress B. Generally, this drop in signaling materials concentration yields the value of BOX, which is correlated to the ability of the system to incorporate signaling materials for transport. Following this drop, any rise in concentration of signaling materials yields the value of ROX, which correlates to the capacity of the system to provide a reservoir of signaling materials.
The sensor of the testing apparatus preferably includes two or more sensors—one may be a membrane-based oxygen electrode 22, such as a polarographic Clark oxygen electrode, which measures O2, NO, H2S and other signaling materials that are unbound and can thus permeate through the membrane. In polarographic sensors, an anode, which is polarized, and a cathode are immersed in an electrolyte, into which oxygen and other signaling materials, permeates through the membrane. The anode/cathode pair causes current to flow in direct proportion to the amount of signaling material, such as oxygen, entering the system. The magnitude of the current thus directly correlates to the amount of signaling material entering the probe or sensor. It would be apparent that a membrane-based sensor necessarily depletes the sample of the material being tested as a result of consumption, yet the level of material consumed by the sensor is considered herein to be of an order of magnitude as to be insignificant for practical purposes.
The other sensor 24 or probe may be an optical fluorescence dissolved oxygen analyzer, such as an Ocean Optics ruthenium-coated fiber optical light emitting diode (LED) probe, and can also include other suitable light based devices, including a laser (hereinafter referred to collectively as an “optical sensor”), which determines an amount of value for O2 and the bundled O2 reservoir (ROXO2). Other sensors, such as chip-based sensors, may also be used on the basis of price, convenience, and sensitivity to new signaling and reactive substances.
As used herein, “ROXO2” is determinable O2 reservoir, and “ROXNO” is determinable NO reservoir. When bundled by the blood, and, in particular, the white blood cells, which are preparing signaling materials for use by the body, ROXO2 and ROXNO are unable to travel through the membrane sensor. However, after a BOX event occurs, increased levels of signaling materials in the sample, as determined by either the membrane or optical sensor, which tend to track each other, yield amounts of ROXO2 and ROXNO. […]

bovine blood standard = assay type: cell-based
Description: as §1
as §2, with “Following this drop, any rise in concentration of signaling materials yields the value of ROX, which correlates to the capacity of the system to provide a reservoir of signaling materials.” left out
The other sensor 24 or probe may be an optical fluorescence dissolved oxygen analyzer, such as an Ocean Optics ruthenium-coated fiber optical light emitting diode (LED) probe, and can also include other suitable light based devices, including a laser (hereinafter referred to collectively as an “optical sensor”), which determines an amount of value for O2 and the bundled O2 reservoir (ROXO2). […]
Between these two or more sensors, therefore, the testing provides a reading for O2, NO, ROXO2, and NO that is in a bundled reservoir (ROXNO), as shown in FIGS. 6 and 7. […] Thus, the readings from the membrane probe and the optical probe together provide a total concentration of BOX and ROX (ROXO2+ROXNO) in the sample after exposure to physical stress B. Also, the slopes of the curves in FIGS. 6 and 7 yield valuable information with respect to the rates of reaction of these components. […]

Molecule: borate
effect on ROX and BOX (human blood): increases of BOX and ROX
effect on ROX and BOX (human blood; listed as borate eye wash): affect ROX and BOX
BOX (human blood): 41% of air saturation
ROX (human blood): 79% of air saturation
ROXNO (human blood): 31% of air saturation
ROXO2 (human blood): 27% of air saturation

Molecule: CC(=O)Oc1ccccc1C(=O)O [Aspirin, aspirin]
effect on ROX and BOX (human blood): affect ROX and BOX
release of NO (human blood; final run of FIG. 6, human blood): very rapid releases of NO
BOX (human blood): 35% of air saturation
ROX (human blood): 74% of air saturation
ROXNO (human blood): 34% of air saturation
ROXO2 (human blood): 29% of air saturation
rise of NO (human blood; in 2 seconds, human blood): a 37% rise

Increases ROXO2 by (bovine blood standard): 10%
Lowers BOX by (bovine blood standard): Lowers BOX by 8%
Lowers ROXNO by (bovine blood standard): 25%
Molecule: acid-citrate-dextrose [ACD]
